Literature values, collected in patent US20230159896A1, “MULTI-LINEAGE CARDIOVASCULAR MICROFLUIDIC ORGAN-CHIP” (CEDARS-SINAI MEDICAL CENTER, priority 2020, published 2023).
“Also recorded” adds a separate entry of the source.

Key:
[1] = clinical, at common dose; for Cmax: read-out: Molar Cmax
[2] = for Cardiovascular side effects: patients
[3] = system: patient-specific hiPSC-CMs
zebrafish = zebrafish model
PI3K/Akt = settings: hiPSC-CMs, previous study

In the case of `CNC(=O)c1ccccc1Sc1ccc2c(/C=C/c3ccccn3)n[nH]c2c1` [axitinib], the “Peak plasma concentration (Cmax)” value [1] is listed as 12.6 ng/mL and the Cmax [1] is listed as 900 nM.

For `COc1cc2ncnc(Nc3ccc(F)c(Cl)c3)c2cc1OCCCN1CCOCC1` [gefitinib], the Cardiovascular side effects [2] is given as “typically does not exhibit cardiotoxic side effects”.

In the case of `COc1cc2nccc(Oc3ccc(NC(=O)NC4CC4)c(Cl)c3)c2cc1C(N)=O` [lenvatinib], the “Peak plasma concentration (Cmax)” value [1] is given as 660 ng/mL and the Cmax [1] is given as 1540 nM.

In the case of `Cc1ccc(Nc2nccc(N(C)c3ccc4c(C)n(C)nc4c3)n2)cc1S(N)(=O)=O` [pazopanib], the Cardiovascular side effects [2] is listed as “may cause heart failure or vascular toxicity”, the “Peak plasma concentration (Cmax)” value [1] is listed as 1960 ng/mL and the Cmax [1] is listed as 3650 nM.

In the case of `Cc1ccc(C(=O)Nc2ccc(CN3CCN(C)CC3)c(C(F)(F)F)c2)cc1C#Cc1cnc2cccnn12` [ponatinib], the “FDA black box warning” value ([2]; human, in vivo) is given as “arterial occlusions and venous thromboembolisms as well as hepatotoxicity”, the Cardiovascular side effects [2] is given as “severe vascular toxicity” and the Cmax [1] is given as 140 nM. For the same molecule, the “Cytotoxicity on hiPSC-CMs relative to other TKIs” value ([3]; previous hiPSC-CM study) was “most cytotoxic of all TKIs studied”.

In the case of `CNC(=O)c1cc(Oc2ccc(NC(=O)Nc3ccc(Cl)c(C(F)(F)F)c3)c(F)c2)ccn1` [regorafenib], the “Peak plasma concentration (Cmax)” value [1] is given as 2500 ng/mL and the Cmax [1] is given as 8080 nM.

In the case of `CNC(=O)c1cc(Oc2ccc(NC(=O)Nc3ccc(Cl)c(C(F)(F)F)c3)cc2)ccn1` [sorafenib], the Cardiovascular side effects [2] is given as “cause hypertension, ischemia, and cardiac side-effects; also recorded: may cause heart failure or vascular toxicity” and the Survival (zebrafish) is given as “decrease survival”.

For `CCN(CC)CCNC(=O)c1c(C)[nH]c(/C=C2\C(=O)Nc3ccc(F)cc32)c1C` [sunitinib], the Cardiovascular side effects [2] is listed as “cause hypertension, ischemia, and cardiac side-effects; also recorded: may cause heart failure or vascular toxicity”, the Survival (zebrafish) is listed as “decrease survival” and the “Peak plasma concentration (Cmax)” value [1] is listed as 81.9 ng/mL. For the same molecule, the Cmax [1] was 1200 nM.

In the case of `COc1cc2c(Nc3ccc(Br)cc3F)ncnc2cc1OCC1CCN(C)CC1` [vandetanib], the “Peak plasma concentration (Cmax)” value [1] is listed as 960 ng/mL and the hiPSC-CM contractile function ([3]; clinically-relevant concentrations, TKIs with FDA black-box warnings) is listed as “contractile dysfunction”.

For insulin: Akt pathway activator, the “Effect of co-treatment on TKI-induced CM toxicity” value ([3]; co-treatment with Akt pathway activators) is given as “reversed TKI-induced CM toxicity” and the PI3K/Akt phosphorylation (PI3K/Akt) is given as “significantly enhanced”.
